Laboratory results as given in publication PMC5014220, “An α‐Helix‐Mimicking 12,13‐Helix: Designed α/β/γ‐Foldamers as Selective Inhibitors of Protein–Protein Interactions” (Angewandte Chemie (International Ed. in English), 2016).

Experiments:
[1] = test system: α‐chymotrypsin (α‐CT); assay: Proteolytic stability with α-chymotrypsin (HPLC); format: in vitro ADME; conditions: α-chymotrypsin type II from bovine pancreas, 1:10000 enzyme/substrate; peptide 200 μM stock in PBS pH 7.50, 2% DMSO; followed by analytical HPLC; fold versus p53_15–31
Excerpt: The proteolytic stability of α/β/γ‐peptides 1–8 was investigated using α‐chymotrypsin (α‐CT) as a representative protease, since this enzyme selectively hydrolyses the amide bond on the C‐terminal side of hydrophobic residues such as Leu, Trp, and Phe, all of which are present in the α/β/γ‐peptide sequences. The p53_15–31 peptide was also studied for comparison (see the Supporting Information). […] For the latter four peptides, the proteolytic activity corresponded to methyl ester hydrolysis of the C‐terminal Leu residue; in all eight cases, therefore, the hexapeptide core remained largely intact for the duration of the experiments.
IV. Proteolysis studies of peptides 1-8
α-Chymotrypsin Type II from bovine pancreas (lyophilized powder, MW = 25 kDa, ≥ 40 units/mg protein) was purchased from Sigma-Aldrich and used without further purification.
α/β/γ-Peptides and p53(15-31) peptide (200 µM stock in PBS buffer pH 7.50, 2% DMSO) were treated with α-Chymotrypsin Type II from bovine pancreas (0.02 µM stock solutions in PBS buffer pH 7.50) in a 1:10000 enzyme/substrate ratio. The degradation was followed with analytical HPLC (Ascentis® Express Peptide Column, injection volume: 20 µL, acetonitrile/water (0.1% TFA) 5-95% gradient) and the data was analysed to extract kinetic values.
1. HPLC traces of the positive control (native p53) in presence of α-Chymotrypsin
(1 picture or pasted object on this page, not shown here)

[2] = target: T1, p53/hDM2 interaction (FITC–p53_15–31 / hDM2(17-126) L33E) (Homo sapiens, UniProt Q00987, L33E); assay: Fluorescence anisotropy (FA) competition assay against p53/hDM2; format: binding; conditions: for IC50: 50 nM FITC–p53(15-31), 150 nM hDM2(17-126) L33E, 40 mM phosphate buffer pH 7.5, 200 mM NaCl, 0.02 mg mL−1 BSA, 5 % DMSO, read after 1 h at room temperature, triplicate, fit ± error; for Displacement of FITC–p53_15–31 from hDM2 (in words): same conditions, lower asymptote of the competition curve not achieved at higher concentrations, IC50 ND
T1 construct: hDM2(17-126)

[3] = target: BODIPY–BAK/Bcl‐xL protein–protein interaction (Homo sapiens, UniProt Q07817); assay: FA competition assay, BODIPY–BAK/Bcl-xL; format: binding; conditions: 50 nM BODIPY-Bak, 150 nM Bcl-xL, top concentration 222 μM, 1 h room temperature, triplicate
[4] = target: T2, FITC–NOXA B/Mcl‐1 protein–protein interaction (Homo sapiens, UniProt Q07820); assay: FA competition assay, FITC–NOXA B/Mcl-1; format: binding; conditions: 50 nM FITC-NOXA B(68-87), 150 nM Mcl-1(172-327), top concentration 222 μM, 1 h room temperature, triplicate
T2 construct: Mcl-1(172-327)

Compound | Resistance to α‐CT relative to native p53_15–31 [1] [fold] | IC50 [2] [µM] | Inhibitory activity on BODIPY–BAK/Bcl‐xL interaction [3] | Inhibitory activity on FITC–NOXA B/Mcl‐1 interaction [4] | Displacement of FITC–p53_15–31 from hDM2 (in words) [2]
COC(=O)CC[C@H](CC(C)C)NC(=O)[C@H]1CC[C@@H]1NC(=O)CC[C@H](Cc1c[nH]c2ccccc12)NC(=O)[C@H]1CC[C@@H]1NC(=O)CC[C@@H](C)NC(=O)[C@H](Cc1ccccc1)NC(=O)OC(C)(C)C [Peptide 2] | – | 15 ± 2 | no inhibitory activity | no inhibitory activity | –
COC(=O)CC[C@H](CC(C)C)NC(=O)[C@H]1CC[C@@H]1NC(=O)CC[C@H](Cc1ccccc1)NC(=O)[C@H]1CC[C@@H]1NC(=O)CC[C@@H](C)NC(=O)[C@H](Cc1ccccc1)NC(C)=O [Peptide 8] | – | – | – | – | effectively displaced FITC–p53_15–31 at micromolar concentrations
COC(=O)[C@H](CC(C)C)NC(=O)[C@H]1CC[C@@H]1NC(=O)CC[C@H](Cc1c[nH]c2ccccc12)NC(=O)[C@H]1CC[C@@H]1NC(=O)CC[C@@H](C)NC(=O)[C@H](Cc1ccccc1)NC(=O)OC(C)(C)C [Peptide 1] | ≥ 10 | 57 ± 22 | no inhibitory activity | no inhibitory activity | –
COC(=O)[C@H](CC(C)C)NC(=O)[C@H]1CC[C@@H]1NC(=O)CC[C@H](Cc1ccccc1)NC(=O)[C@H]1CC[C@@H]1NC(=O)CC[C@@H](C)NC(=O)[C@H](Cc1ccccc1)NC(=O)OC(C)(C)C [Peptide 3] | ≥ 10 | > 100 | – | – | –

More lines, main results first:

Resistance to α‐CT relative to native p53_15–31 [1] [fold] | IC50 [2] [µM] | Inhibitory activity on BODIPY–BAK/Bcl‐xL interaction [3] | Inhibitory activity on FITC–NOXA B/Mcl‐1 interaction [4] | Compound | Displacement of FITC–p53_15–31 from hDM2 (in words) [2]
≥ 10 | > 100 | – | – | COC(=O)[C@H](CC(C)C)NC(=O)[C@H]1CC[C@@H]1NC(=O)CC[C@H](Cc1c[nH]c2ccccc12)NC(=O)[C@H]1CC[C@@H]1NC(=O)CC[C@@H](C)NC(=O)[C@H](Cc1ccccc1)NC(C)=O [Peptide 5] | –
≥ 32 | – | – | – | COC(=O)CC[C@H](CC(C)C)NC(=O)[C@H]1CC[C@@H]1NC(=O)CC[C@H](Cc1c[nH]c2ccccc12)NC(=O)[C@H]1CC[C@@H]1NC(=O)CC[C@@H](C)NC(=O)[C@H](Cc1ccccc1)NC(C)=O [Peptide 6] | effectively displaced FITC–p53_15–31 at micromolar concentrations
≥ 32 | > 100 | – | – | COC(=O)CC[C@H](CC(C)C)NC(=O)[C@H]1CC[C@@H]1NC(=O)CC[C@H](Cc1ccccc1)NC(=O)[C@H]1CC[C@@H]1NC(=O)CC[C@@H](C)NC(=O)[C@H](Cc1ccccc1)NC(=O)OC(C)(C)C [Peptide 4] | –
≥ 10 | > 100 | – | – | COC(=O)[C@H](CC(C)C)NC(=O)[C@H]1CC[C@@H]1NC(=O)CC[C@H](Cc1ccccc1)NC(=O)[C@H]1CC[C@@H]1NC(=O)CC[C@@H](C)NC(=O)[C@H](Cc1ccccc1)NC(C)=O [Peptide 7] | –
